Reference: patent US10323027B2, “2,3-dihydro-4H-1,3-benzoxazin-4-one derivatives as modulators of cholinergic muscarinic M1 receptor” (Takeda Pharmaceutical Company Limited, priority 2015, dated 2019)
Where a name gives a salt, the structure may show the parent alone.

Target: T1, human M1 receptor (hCHRM1) (Homo sapiens, UniProt P11229)
T1 construct: expressed in transfected cells
T1 sequence (P11229 1-460): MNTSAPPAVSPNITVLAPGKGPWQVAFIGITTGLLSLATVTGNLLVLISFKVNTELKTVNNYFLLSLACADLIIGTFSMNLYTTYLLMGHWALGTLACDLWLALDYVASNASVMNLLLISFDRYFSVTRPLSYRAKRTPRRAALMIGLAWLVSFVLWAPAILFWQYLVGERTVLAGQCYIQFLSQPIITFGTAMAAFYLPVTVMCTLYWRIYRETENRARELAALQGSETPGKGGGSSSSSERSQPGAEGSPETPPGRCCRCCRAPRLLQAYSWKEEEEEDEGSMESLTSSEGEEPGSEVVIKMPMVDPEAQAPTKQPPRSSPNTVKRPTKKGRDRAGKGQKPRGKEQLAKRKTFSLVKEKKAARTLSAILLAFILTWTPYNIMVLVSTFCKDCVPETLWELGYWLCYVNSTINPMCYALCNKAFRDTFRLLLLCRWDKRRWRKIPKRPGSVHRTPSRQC
Test: Measurement of M1 receptor positive allosteric modulator (M1PAM) activity, Ca2+ fluorescence by FLIPRtetra (Experimental Example 1)
Assay type: cell-based
Details: for activity (%) at 10 μM: 10 μM test compound, 100% = acetylcholine 1 μM, 0% = DMSO; for EC50: inflection point of concentration-dependent curve, in presence of acetylcholine at EC20 (0.8-1.0 nM), CHO-K1 cells expressing hCHRM1, read-out: IP value
Experimental: Measurement of M1 Receptor Positive Allosteric Modulator (M1PAM) Activity
The activity of a test compound in the presence of acetylcholine at EC20 concentration (final concentration 0.8-1.0 nM), which affords an action corresponding to about 20% of the maximum activity, was measured as PAM activity. The method is as follows. CHO-K1 cells stably expressing a human M1 receptor (hCHRM1) were plated on a 384-well black clear bottom plate (BD Falcon) at 5,000 cells/well, and cultured in an incubator at 37° C., 5% CO2 for 1 day. The medium in the cell plate was removed, and a dye solution (prepared by adding Recording medium (DOJINDO LABORATORIES) to a final concentration of 1×concentration, Fluo-4 AM (DOJINDO LABORATORIES) to a final concentration of 2.5 μg/mL, Pluronic F127 (DOJINDO LABORATORIES) to a final concentration of 0.08%, and probenecid (DOJINDO LABORATORIES) to a final concentration of 1.25 mM to assay buffer (HBSS (Invitrogen), 20 mM HEPES (Invitrogen), 0.1% BSA (Wako Pure Chemical Industries, Ltd.))) was added at 30 μL/well. The cells were left standing in the incubator at 37° C., 5% CO2 for 30 min, and further left standing at room temperature for 30 min. A test compound prepared by diluting with assay buffer containing 3.2-4.0 nM acetylcholine was added at 10 μL/well, and the fluorescence was measured by FLIPRtetra (Molecular Devices) for 1 min every 1 second. With the definition that the amount of change in the fluorescence on addition of acetylcholine (final concentration 1 μM) is 100% and that on addition of DMSO instead of a test compound is 0%, the activity (%) of the test compound was calculated, and the inflection point in the concentration-dependent curve of the test compound was calculated as IP values.

## Cc1cc2c(cc1Cc1ccc(-n3cccn3)cc1)C(=O)N([C@H]1CCCC[C@@H]1O)CO2 (relative stereo) [Example 52, 3-(trans-2-hydroxycyclohexyl)-7-methyl-6-(4-(1H-pyrazol-1-yl)benzyl)-2,3-dihydro-4H-1,3-benzoxazin-4-one]
  activity (%) at 10 μM: 101%
  EC50: 11 nM

## Cc1c(Cc2ccc(-n3cccn3)cc2)cc2c(c1C)OCN([C@H]1CCCC[C@@H]1O)C2=O (relative stereo) [Example 53, 3-(trans-2-hydroxycyclohexyl)-7,8-dimethyl-6-(4-(1H-pyrazol-1-yl)benzyl)-2,3-dihydro-4H-1,3-benzoxazin-4-one]
  activity (%) at 10 μM: 96%
  EC50: 11 nM

## O=C1c2cc(Cc3ccc(Cl)nc3)c3ccccc3c2OCN1[C@H]1CCCC[C@@H]1O (relative stereo) [Example 56, 6-((6-chloropyridin-3-yl)methyl)-3-(trans-2-hydroxycyclohexyl)-2,3-dihydro-4H-naphtho[2,1-e][1,3]oxazin-4-one]
  activity (%) at 10 μM: 109%
  EC50: 16 nM

## COc1ccc(Cc2cc3c(c(C)c2C)OCN([C@H]2COCC[C@@H]2O)C3=O)cc1 (relative stereo) [Example 59, 1,5-anhydro-2,4-dideoxy-2-(6-(4-methoxybenzyl)-7,8-dimethyl-4-oxo-2H-1,3-benzoxazin-3(4H)-yl)-threo-pentitol]
  activity (%) at 10 μM: 99%
  EC50: 21 nM

## Cc1cc2c(cc1Cc1ccc(Cl)nc1)C(=O)N([C@H]1CCCC[C@@H]1O)CO2 (relative stereo) [Example 62, 6-((6-chloropyridin-3-yl)methyl)-3-(trans-2-hydroxycyclohexyl)-7-methyl-2,3-dihydro-4H-1,3-benzoxazin-4-one]
  activity (%) at 10 μM: 91%

## Cn1cc(-c2ccc(Cc3ccc4c(c3)C(=O)N([C@H]3CCCC[C@@H]3O)CO4)cn2)cn1 (relative stereo) [Example 63, 3-(trans-2-hydroxycyclohexyl)-6-((6-(1-methyl-1H-pyrazol-4-yl)pyridin-3-yl)methyl)-2,3-dihydro-4H-1,3-benzoxazin-4-one]
  activity (%) at 10 μM: 99%
  EC50: 32 nM

## Cc1cc(Cc2ccc(-n3cccn3)cc2)cc2c1OCN([C@H]1CCCC[C@@H]1O)C2=O (relative stereo) [Example 65, 3-(trans-2-hydroxycyclohexyl)-8-methyl-6-(4-(1H-pyrazol-1-yl)benzyl)-2,3-dihydro-4H-1,3-benzoxazin-4-one]
  activity (%) at 10 μM: 99%
  EC50: 35 nM

## Cn1cc(-c2ccc(Cc3ccc4c(c3)C(=O)N([C@H]3CCCC[C@@H]3O)CO4)cc2)cn1 (relative stereo) [Example 66, 3-(trans-2-hydroxycyclohexyl)-6-(4-(1-methyl-1H-pyrazol-4-yl)benzyl)-2,3-dihydro-4H-1,3-benzoxazin-4-one]
  activity (%) at 10 μM: 93%
  EC50: 44 nM

## Cc1cc2c(cc1CN1CCC(F)(F)CC1)C(=O)N([C@H]1CCCC[C@@H]1O)CO2 (relative stereo) [Example 85, 6-((4,4-difluoropiperidin-1-yl)methyl)-3-(trans-2-hydroxycyclohexyl)-7-methyl-2,3-dihydro-4H-1,3-benzoxazin-4-one]
  activity (%) at 10 μM: 104%
  EC50: 110 nM

## COc1ccc(Cc2cc3c(cc2C)OCN([C@H]2COCC[C@@H]2O)C3=O)cc1 (relative stereo) [Example 86, 1,5-anhydro-2,4-dideoxy-2-(6-(4-methoxybenzyl)-7-methyl-4-oxo-2H-1,3-benzoxazin-3(4H)-yl)-threo-pentitol]
  activity (%) at 10 μM: 99%
  EC50: 100 nM

## Cc1ccc(Cc2cc3c(c4ccccc24)OCN([C@H]2COCC[C@@H]2O)C3=O)cn1 (single isomer, unassigned) [Example 3, 1,5-anhydro-2,4-dideoxy-2-(6-((6-methylpyridin-3-yl)methyl)-4-oxo-2H-naphtho[2,1-e][1,3]oxazin-3(4H)-yl)-threo-pentitol monohydrochloride (optical isomer)]
  activity (%) at 10 μM: 103%
  EC50: 2.5 nM

## Cc1ccc(Cc2cc3c(c(C)c2C)OCN([C@H]2COCC[C@@H]2O)C3=O)cn1 (single isomer, unassigned) [Example 7, 1,5-anhydro-2,4-dideoxy-2-(7,8-dimethyl-6-((6-methylpyridin-3-yl)methyl)-4-oxo-2H-1,3-benzoxazin-3(4H)-yl)-threo-pentitol monohydrochloride (optical isomer)]
  activity (%) at 10 μM: 108%
  EC50: 7.9 nM

## COc1ccc(Cc2cc3c(c(C)c2C)OCN([C@H]2COCC[C@@H]2O)C3=O)cc1 (single isomer, unassigned) [Example 17, 1,5-anhydro-2,4-dideoxy-2-(6-(4-methoxybenzyl)-7,8-dimethyl-4-oxo-2H-1,3-benzoxazin-3(4H)-yl)-threo-pentitol (optical isomer)]
  activity (%) at 10 μM: 112%
  EC50: 27 nM

## COc1c(Cc2ccc(-n3cccn3)nc2)cc2c(c1F)OCN([C@H]1CCC[C@@H]1O)C2=O (single isomer, unassigned) [Example 55, 8-fluoro-3-(trans-2-hydroxycyclopentyl)-7-methoxy-6-((6-(1H-pyrazol-1-yl)pyridin-3-yl)methyl)-2,3-dihydro-4H-1,3-benzoxazin-4-one (optical isomer)]
  activity (%) at 10 μM: 98%
  EC50: 14 nM

## Cc1c(Cc2ccc(-n3cccn3)cc2)cc2c(c1F)OCN([C@H]1COCC[C@@H]1O)C2=O [Example 1, 8-fluoro-3-((3S,4S)-4-hydroxytetrahydro-2H-pyran-3-yl)-7-methyl-6-(4-(1H-pyrazol-1-yl)benzyl)-2,3-dihydro-4H-1,3-benzoxazin-4-one]
  activity (%) at 10 μM: 96%
  EC50: 1.8 nM

## Cc1ccc(Cc2cc3c(c(Cl)c2C)OCN([C@H]2CCCC[C@@H]2O)C3=O)cn1 [Example 2, 8-chloro-3-((1S,2S)-2-hydroxycyclohexyl)-7-methyl-6-((6-methylpyridin-3-yl)methyl)-2,3-dihydro-4H-1,3-benzoxazin-4-one]
  activity (%) at 10 μM: 106%
  EC50: 2.5 nM

## O=C1c2cc(Cc3ccc(Cl)nc3)c3ccccc3c2OCN1[C@H]1COCC[C@@H]1O [Example 4, 1,5-anhydro-2-(6-((6-chloropyridin-3-yl)methyl)-4-oxo-2H-naphtho[2,1-e][1,3]oxazin-3(4H)-yl)-2,4-dideoxy-L-threo-pentitol]
  activity (%) at 10 μM: 109%
  EC50: 3.2 nM

## Cc1c(Cc2ccc(-n3cccn3)cc2)cc2c(c1F)OCN([C@H]1CCC[C@@H]1O)C2=O [Example 5, 8-fluoro-3-((1S,2S)-2-hydroxycyclopentyl)-7-methyl-6-(4-(1H-pyrazol-1-yl)benzyl)-2,3-dihydro-4H-1,3-benzoxazin-4-one]
  activity (%) at 10 μM: 104%
  EC50: 8.5 nM

## Cc1ccc(Cc2cc3c(c(Cl)c2C)OCN([C@H]2COCC[C@@H]2O)C3=O)cn1 [Example 6, 1,5-anhydro-2-(8-chloro-7-methyl-6-((6-methylpyridin-3-yl)methyl)-4-oxo-2H-1,3-benzoxazin-3(4H)-yl)-2,4-dideoxy-L-threo-pentitol]
  activity (%) at 10 μM: 102%
  EC50: 7 nM

## Cc1c(Cc2ccc(Cl)nc2)cc2c(c1C)OCN([C@H]1CCC[C@@H]1O)C2=O [Example 8, 6-((6-chloropyridin-3-yl)methyl)-3-((1S,2S)-2-hydroxycyclopentyl)-7,8-dimethyl-2,3-dihydro-4H-1,3-benzoxazin-4-one]
  activity (%) at 10 μM: 105%
  EC50: 9.6 nM
